According to ChEMBL document CHEMBL1153147, “Solid-phase synthesis and antibiotic activities of cyclodecapeptides on the scaffold of naturally occurring Laterocidin” (2010):
Values after ≈ are worked out from the molar mass of the structure shown.

What was measured:
Type in all cases: functional
Escherichia coli [1] = test: Antibacterial activity against Escherichia coli ATCC 25922 after 20 hrs by broth dilution method; conditions: ATCC 25922, 20 h
Staphylococcus aureus [2] = test: Antibacterial activity against Staphylococcus aureus ATCC 29213 after 20 hrs by broth dilution method; conditions: ATCC 29213, 20 h
Staphylococcus aureus [3] = test: Antibacterial activity against methicillin-resistant Staphylococcus aureus clinical isolate after 20 hrs by broth dilution method
Escherichia coli [4] = test: Antibacterial activity against drug-resistant Escherichia coli clinical isolate after 20 hrs by broth dilution method
Bacillus subtilis = test: Antibacterial activity against Bacillus subtilis ATCC 82 after 20 hrs by broth dilution method; conditions: ATCC 82, 20 h
Pseudomonas aeruginosa = test: Antibacterial activity against Pseudomonas aeruginosa ATCC 27853 after 20 hrs by broth dilution method; conditions: ATCC 27853, 20 h
Escherichia coli [5] = test: Antibacterial activity against extended spectrum beta lactamase-producing Escherichia coli clinical isolate after 20 hrs by broth dilution method

Work on CC(C)C[C@@H]1NC(=O)[C@H](CC(N)=O)NC(=O)[C@H](CC(N)=O)NC(=O)[C@@H](Cc2ccccc2)NC(=O)[C@H](Cc2ccc(O)cc2)NC(=O)[C@@H]2CCCN2C(=O)[C@@H](Cc2ccccc2)NC(=O)[C@H](CC(C)C)NC(=O)[C@H](CCCN)NC(=O)[C@H](C(C)C)NC1=O yielded an MIC (Escherichia coli [1]) of over 256 µg/mL, an MIC (Staphylococcus aureus [2]) of 1 µg/mL (≈ 0.818 µM) and an MIC (Staphylococcus aureus [3]) of 1 µg/mL (≈ 0.818 µM). It also gave an MIC (Escherichia coli [4]) of 16 µg/mL (≈ 13.1 µM), an MIC (Bacillus subtilis) of 0.5 µg/mL (≈ 0.409 µM) and an MIC (Pseudomonas aeruginosa) of over 256 µg/mL. It also gave an MIC (Escherichia coli [5]) of 64 µg/mL (≈ 52.4 µM).

For CC(C)C[C@@H]1NC(=O)[C@H](CC(N)=O)NC(=O)[C@H](CC(N)=O)NC(=O)[C@@H](Cc2ccccc2)NC(=O)[C@H](Cc2ccccc2)NC(=O)[C@@H]2CCCN2C(=O)[C@@H](Cc2ccccc2)NC(=O)[C@H](CC(C)C)NC(=O)[C@H](CCCN)NC(=O)[C@H](C(C)C)NC1=O, the MIC (Escherichia coli [1]) was over 256 µg/mL, the MIC (Staphylococcus aureus [2]) was 2 µg/mL (≈ 1.66 µM) and the MIC (Staphylococcus aureus [3]) was 4 µg/mL (≈ 3.32 µM). For the same compound, the MIC (Escherichia coli [4]) was 128 µg/mL (≈ 106 µM), the MIC (Bacillus subtilis) was 2 µg/mL (≈ 1.66 µM) and the MIC (Pseudomonas aeruginosa) was over 256 µg/mL. The MIC (Escherichia coli [5]) was 128 µg/mL (≈ 106 µM).

In the case of CC(C)C[C@@H]1NC(=O)[C@H](CCCN)NC(=O)[C@H](C(C)C)NC(=O)[C@H](CC(C)C)NC(=O)[C@H](CC(N)=O)NC(=O)[C@H](CC(N)=O)NC(=O)[C@H](Cc2ccccc2)NC(=O)[C@H](Cc2ccc(O)cc2)NC(=O)[C@@H]2CCCN2C(=O)[C@H](Cc2ccccc2)NC1=O, the MIC (Escherichia coli [1]) is reported as over 256 µg/mL, the MIC (Staphylococcus aureus [2]) is reported as 64 µg/mL (≈ 52.4 µM) and the MIC (Staphylococcus aureus [3]) is reported as 128 µg/mL (≈ 105 µM). The MIC (Bacillus subtilis) was 64 µg/mL (≈ 52.4 µM), the MIC (Pseudomonas aeruginosa) was over 256 µg/mL and the MIC (Escherichia coli [5]) was over 256 µg/mL.

For CC(C)C[C@@H]1NC(=O)[C@H](CC(=O)O)NC(=O)[C@H](CC(N)=O)NC(=O)[C@@H](Cc2ccccc2)NC(=O)[C@H](Cc2ccccc2)NC(=O)[C@@H]2CCCN2C(=O)[C@@H](Cc2ccc(O)cc2)NC(=O)[C@H](CC(C)C)NC(=O)[C@H](CCCN)NC(=O)[C@H](C(C)C)NC1=O [LATEROCIDIN], the MIC (Escherichia coli [1]) was over 256 µg/mL, the MIC (Staphylococcus aureus [2]) was 32 µg/mL (≈ 26.2 µM) and the MIC (Staphylococcus aureus [3]) was 128 µg/mL (≈ 105 µM). For the same compound, the MIC (Bacillus subtilis) was 16 µg/mL (≈ 13.1 µM), the MIC (Pseudomonas aeruginosa) was over 256 µg/mL and the MIC (Escherichia coli [5]) was over 256 µg/mL.

CC(C)C[C@@H]1NC(=O)[C@H](CC(N)=O)NC(=O)[C@H](CC(N)=O)NC(=O)[C@H](Cc2ccccc2)NC(=O)[C@H](Cc2ccc(O)cc2)NC(=O)[C@@H]2CCCN2C(=O)[C@@H](Cc2ccccc2)NC(=O)[C@H](CC(C)C)NC(=O)[C@H](CCCN)NC(=O)[C@H](C(C)C)NC1=O was tested, and the MIC (Escherichia coli [1]) was over 256 µg/mL, the MIC (Staphylococcus aureus [2]) was 32 µg/mL (≈ 26.2 µM) and the MIC (Staphylococcus aureus [3]) was 16 µg/mL (≈ 13.1 µM). For the same compound, the MIC (Bacillus subtilis) was 32 µg/mL (≈ 26.2 µM), the MIC (Pseudomonas aeruginosa) was over 256 µg/mL and the MIC (Escherichia coli [5]) was over 256 µg/mL.

With CC(C)C[C@@H]1NC(=O)[C@H](CC(N)=O)NC(=O)[C@H](CC(N)=O)NC(=O)[C@@H](Cc2ccccc2)NC(=O)[C@H](Cc2ccccc2)NC(=O)[C@@H]2CCCN2C(=O)[C@@H](Cc2ccc(O)cc2)NC(=O)[C@H](CC(C)C)NC(=O)[C@H](CCCN)NC(=O)[C@H](C(C)C)NC1=O the MIC (Escherichia coli [1]) was 64 µg/mL (≈ 52.4 µM), the MIC (Staphylococcus aureus [2]) was 2 µg/mL (≈ 1.64 µM) and the MIC (Staphylococcus aureus [3]) was 4 µg/mL (≈ 3.27 µM). For the same compound, the MIC (Escherichia coli [4]) was 64 µg/mL (≈ 52.4 µM), the MIC (Bacillus subtilis) was 1 µg/mL (≈ 0.818 µM) and the MIC (Pseudomonas aeruginosa) was over 256 µg/mL. It also gave an MIC (Escherichia coli [5]) of 256 µg/mL (≈ 209 µM).

Work on CC(C)C[C@@H]1NC(=O)[C@H](CCCN)NC(=O)[C@H](C(C)C)NC(=O)[C@H](CC(C)C)NC(=O)[C@H](CC(N)=O)NC(=O)[C@H](CC(N)=O)NC(=O)[C@@H](Cc2ccccc2)NC(=O)[C@H](Cc2ccc(O)cc2)NC(=O)[C@@H]2CCCN2C(=O)[C@H](Cc2ccccc2)NC1=O yielded an MIC (Escherichia coli [1]) of over 256 µg/mL, an MIC (Staphylococcus aureus [2]) of 128 µg/mL (≈ 105 µM) and an MIC (Staphylococcus aureus [3]) of 256 µg/mL (≈ 209 µM). The MIC (Bacillus subtilis) was 32 µg/mL (≈ 26.2 µM), the MIC (Pseudomonas aeruginosa) was over 256 µg/mL and the MIC (Escherichia coli [5]) was over 256 µg/mL.
